According to patent US5290576A, “Tert-butyloxycarbonyl-L-tyrosyl-peptidoglycan monomer and ^125 I-labeled derivative thereof, their preparation and use” (Pliva Farmaceutska, priority 1990, dated 1994):

Experiments:
[1] = test system: antibody-forming cells (plaque-forming cells, PFC) in the spleen of mice immunized with sheep erythrocytes (SRBC); assay: Immunostimulating activity: plaque-forming cells in spleen of mice immunized with sheep erythrocytes (Jerne's technique); assay type: in vivo; details: for PFC, % (of Hanks' control): 200 μg i.v. on day +1, PFC on day +4, Hanks' control = 100; for PFC, mean (X) / PFC, range of individual values: 200 μg i.v. on day +1 after SRBC i.p., PFC in spleen on day +4
Description: The immunostimulating activity of Boc-Tyr-PGM was tested in mice immunized with sheep erythrocytes (sheep red blood cells, SRBC).
Mice (CBA or AKR), five per group, were immunized i.p. with sheep erythrocytes (1×10^8 SRBC) in Hanks' solution. One day later (on day +1), the control group of mice receiving i.v. Hanks' solution, whereas the test group of mice was given i.v. 200 μg of Boc-Tyr-PGM in Hanks' solution. As positive control, a group of mice was used, to which 200 μg of peptidoglycan monomer (PGM) in Hanks' solution was administered i.v. Four days later (on day +4), the number of antibody-forming cells (plaque-forming cells, PFC) was determined in the spleen by Jerne's technique (Jerne, N. K., Nordin, A. A., and Henry, C. (1963), The agar plaque tecnique for recognizing antibody producing cells, in: "Cell Bound Antibodies", p. 109, Wistar Institute Press, Philadelphia).

melanoma B-16 = assay: Antitumor (antimetastatic) activity: lung metastases in mice inoculated with melanoma B-16; assay type: in vivo; details: for Inhibition % / Metastases %: counted on day 23; for Metastases %: Hanks' control = 100; for Number of metastases, mean (X): C57BL/6 mice, lung metastases counted on day 23
Description: The antitumor activity of Boc-Tyr-PGM was investigated in mice, inoculated with melanoma B-16.
Mice (C5 7 BL/6, male, 4 months old), five per group, were given i.v. each 1×10^5 cells of B-16 melanoma on day 0.
One group of mice was chosen as control and was not treated further in any manner. The mice in experimental groups were given i.v. each 1 mg of Boc-Tyr-PGM, according to the following protocol:
3rd group--days 3 and 7 (total 2 mg of Boc-Tyr-PGM)
Three mice groups, which received PGM (PLIVA) i.v. according to the same protocol, were chosen as the positive control.
Macroscopically detectable lung metastases were counted on day 23.

[2] = 1 mg i.v. on days 3 and 7 (total 2 mg)

Substance | PFC, % (of Hanks' control) ([1]; AKR mice) [%] | PFC, mean (X) ([1]; AKR mice) | PFC, range of individual values ([1]; AKR mice) | PFC, % (of Hanks' control) ([1]; CBA mice) [%] | PFC, mean (X) ([1]; CBA mice) | PFC, range of individual values ([1]; CBA mice) | increased number of PFC in comparison with the control group ([1]; both mice strains (CBA, AKR), 200 μg i.v.) | effectiveness compared with the positive control peptidoglycan monomer ([1]; both tests (CBA, AKR)) | Inhibition % (melanoma B-16; 1 mg i.v. on day 3) [%] | Metastases % (melanoma B-16; 1 mg i.v. on day 3) [%] | Inhibition % (melanoma B-16; 1 mg i.v. on day 7) [%] | Metastases % (melanoma B-16; 1 mg i.v. on day 7) [%] | Inhibition % (melanoma B-16; [2]) [%] | Metastases % (melanoma B-16; [2]) [%] | Number of metastases, mean (X) (melanoma B-16; 1 mg i.v. on day 3) | Number of metastases, mean (X) (melanoma B-16; 1 mg i.v. on day 7) | Number of metastases, mean (X) (melanoma B-16; [2]) | inhibition rate of metastases, all treated mice groups (melanoma B-16; all treatment protocols (day 3, day 7, days 3 and 7)) | difference in inhibition rate between treatment periods and total doses (melanoma B-16; day 3 or 7, 1 mg on day 3 or total 2 mg on days 3 and 7) | antimetastatic effect compared with PGM (PLIVA) positive control (melanoma B-16; mouse, in vivo)
tert-Butyloxycarbonyl-L-tyrosyl-peptidoglycan monomer [Boc-Tyr-PGM] | 150 | 55,974 | 31,730-68,670 | 157 | 295,866 | 257,600-304,266 | approximately 50% | comparable with the effect of the positive control | 38.7 | 61.3 | 41.9 | 58.1 | 43.6 | 56.4 | 7.6 ± 1.9 | 7.2 ± 4.0 | 7.0 ± 2.7 | 37.8%-43.6 | No significant difference in the inhibition rate | comparable to the effect of PGM (PLIVA)
GlcNAc-β-(1→4)MurNAc-L-Ala-D-iGln-[(L)-meso-A2 pm-(D)-amide-(L)-D-Ala-D-Ala] [PGM, reference compound] | 130 | 48,668 | 27,200-61,070 | 166 | 313,413 | 198,800-449,866 |  |  | 50.0 | 50.0 | 66.5 | 43.5 | 67.3 | 42.7 | 6.2 ± 4.4 | 5.4 ± 1.7 | 5.3 ± 1.7 |  |  | 
